Experimental data reported in paper PMC8949806, “Automated Synthesis of ^68Ga-Labeled DOTA-MGS8 and Preclinical Characterization of Cholecystokinin-2 Receptor Targeting” (Molecules, 2022).
Where a SMILES comes first, the peptide text is derived from it. [ ]: non-standard residue; d: D form. The star is where a group is joined. DOTA = O=C(O)CN1CCN(CC(=O)O)CCN(CC(=O)*)CCN(CC(=O)O)CC1; 1Nal = N[C@@H](Cc1cccc2ccccc12)C(=O)O; NMeNle = CCCC[C@H](NC)C(=O)O

Test: in vivo
Design: species or system BALB/c nude mice
Details: female, BALB/c nude, mouse, iv, total radioactivity
Experimental: Biodistribution studies were performed in accordance with the ethical standards of the institution and approved by the Austrian Ministry of Science (BMWFW-66.011/0072-V/3b/2019). In vivo studies were carried out in 6–8-week-old female BALB/c nude mice xenografted with A431-CCK2R/A431-mock cells (Charles River, Sulzfeld, Germany; n = 4). For the induction of the tumor xenografts, 150 μL DMEM containing 2 × 10^6 A431-CCK2R and A431-mock cells were injected subcutaneously into the right and left flanks of each mouse. Tumors were allowed to grow for 10–14 days. [^68Ga]Ga-DOTA-MGS8 used in animal studies was prepared as described in the Supplementary Materials (page 2, Figures S1 and S2). To remove any hydrophilic impurities after radiolabeling, the solution was passed through a Sep-Pak® Light C18 cartridge (Waters, Milford, MA) preconditioned with ethanol and physiological saline. [^68Ga]Ga-DOTA-MGS8 was then eluted with 600 µL of a mixture of ethanol and PBS (2/1; v/v) followed by 1100 µL PBS. To this solution, 20 µL of 0.01 M bicarbonate was added for pH adjustment. The final injection solution was diluted with PBS containing 0.5% bovine serum albumin (BSA) to reach an injected radioactivity of ~200 kBq and a total injected peptide amount of ~30 pmol. [^68Ga]Ga-DOTA-MGS8 was administered in 150 µL via a lateral tail vein. The mice were euthanized 1 h p.i. by cervical spine dislocation. […] All organs, including blood and the remaining body, were weighed and their radioactivity was measured using the gamma-counter together with a standard. For the determination of radioactivity in the different tissues, a standard of 10 µL of the injection solution, as well as a 50 µL aliquot of a 1:10 and 1:50 dilution of the injection solution, were measured along with samples taken from the animals. […] The volume injected to each mouse was determined by calculating the difference in weight of the syringe before and after injection. Results were expressed as the percentage of injected activity per gram tissue (% IA/g).

CCCC[C@@H](C(=O)N[C@@H](CC(=O)O)C(=O)N[C@@H](Cc1cccc2ccccc12)C(N)=O)N(C)C(=O)[C@H](Cc1c[nH]c2ccccc12)NC(=O)CNC(=O)[C@H](Cc1ccc(O)cc1)NC(=O)[C@@H]1CCCN1C(=O)[C@@H](CCC(=O)O)NC(=O)CN1CCN(CC(=O)O)CCN(CC(=O)O)CCN(CC(=O)O)CC1 [[^68Ga]Ga-DOTA-MGS8, metal not drawn] ({DOTA}-[dE]PYGW[NMeNle]D[1Nal]-NH2)
tissue to tissue ratio at 1 h (Tumor-to-blood ratio): 13.4 ± 1.77 | tissue to tissue ratio at 1 h (Tumor-to-kidney ratio): 4.41 ± 0.4 | tissue to tissue ratio at 1 h (Tumor-to-stomach ratio): 11 ± 2.05
